Assays:
Assay type in all cases: cell-based
Settings in all cases: after 10, 20, 40 and 60 minutes at all dilutions 1:100, 1:200, 1:400, 1:800
[1] = tested on: Escherichia coli; experiment: Antimicrobial testing by agar dilution, Escherichia coli
Experimental: (§1) The antimicrobial properties of the 6-(3-hydroxyphenyl)-2-methoxy-4-(3-methylphenyl)nicotinonitrile (4) were studied by the method of agar dilution. Test solutions of each compound were prepared in concentration of 1% using dimethylformamide as a solvent then they are diluted in physiological solution to obtain the final experimental dilutions 1:100, 1:200, 1:400, 1:800. The effect of these substances were compared with furacillin in a controllable study. The testing microbes used were gram positive bacteria Staphylococcus aureus, gram negative bacteria Escherichia coli, Pseudomonas aeruginosa and Candida albicans fungi were taken. The experiments used for this survey were meat-pentonlu agar (EPA) for cultivation of bacteria and Saburo environment for fungi. Each experiment used 1 ml of test solution on each plate 500 min. Add 2 drops of emulsified with microbes feel. All experimental samples were taken from the agar after 10, 20, 40, 60 minutes in the environment on the basis of Patrk planted. Bacteria were cultivated at a temperature of 37° C. for 1 day and the mushroom was kept in a thermostat for 2 hours at a temperature of 28° C. in the. Then results were checked.

[2] = tested on: Candida albicans; experiment: Antimicrobial testing by agar dilution, Candida albicans
Experimental: as §1

[3] = tested on: Staphylococcus aureus; experiment: Antimicrobial testing by agar dilution, Staphylococcus aureus
Experimental: as §1

[4] = tested on: Pseudomonas aeruginosa; experiment: Antimicrobial testing by agar dilution, Pseudomonas aeruginosa
Experimental: as §1

Measured: inhibition activity

COc1nc(-c2cccc(O)c2)cc(-c2cccc(C)c2)c1C#N [6-(3-hydroxyphenyl)-2-methoxy-4-(3-methylphenyl)nicotinonitrile]
highest inhibition activity: all assays above

— US11939295B1, “6-(3-hydroxyphenyl)-2-methoxy-4-(3-methylphenyl)nicotinonitrile as an antimicrobial compound” (KING FAISAL UNIVERSITY, priority 2023, dated 2024)
